Laboratory results taken from patent US20150141336A1, “Pancreatic Peptide Compounds and Use” (Novo Nordisk A/S, priority 2012, published 2015).
Numbered stars: 1 amine (or outer) side, 2 acyl side, 3 side chain; on linkers, the order of the positions; unused ones are H or OH. Side chains are listed from the residue outwards. Peptide text beside a SMILES is read from it. * marks the point of attachment. C18 diacid = O=C(O)CCCCCCCCCCCCCCCCC(=O)*; γGlu = O=C(O)[C@H](CCC(=O)[*:2])N[*:1]; AEEA = NCCOCCOCC(=O)O

assay: Assay (II) PK i.v. minipig, in vivo half-life; parameters: species or system Göttingen mini-pigs; settings: male, Göttingen, minipig, iv, Half-life minipig, Assay (II)
Description: An assay useful for measuring the pharmacokinetic (PK) profile of the PP peptide is the following mini-pig PK assay.
Five male Göttingen mini-pigs weighing approximately 18 to 22 kg from Ellegaard Göttingen Minipigs NS, Denmark are included in the study. The mini-pigs have two central venous catheters inserted which are used for intra venous (i.v.) dosing and blood sampling. The test compound is dissolved in 50 mM K2HPO4, 0.05% tween 80, pH=8.0 to a concentration of 180 nmol/ml. For comparison a control compound, such as human PP(1-36), may be administered. The pigs are dosed with 6 nmol test compound/kg body weight. Blood samples are taken at the following time points: pre-dose, 30 minutes, 1, 2, 4, 8, 24, 48, 72, 96, 120, 168 and 240 hours post dosing. The blood samples were collected into test tubes containing EDTA buffer for stabilization and kept on ice for max. 20 minutes before centrifugation. The centrifugation procedure to separate plasma may be: 4° C., approx. 2500 g for 10 minutes. Plasma is collected and immediately transferred to Micronic tubes stored at −20° C. until assayed.
The test compounds were assayed in plasma by Turbulent Flow Chromatography coupled to Liquid Chromatography with subsequent Tandem Mass Spectrometric Detection (TFC/LC/MS/MS). Positive mode ionization and Multiple Reaction Monitoring (MRM) of a multiple protonated species fragmented to a singly charged ion was employed for selectivity. The selectivity of the method allows multiple compounds to be quantified in one sample.
The concentrations of the test compound in samples of unknown concentration were calculated using the peak area as a function of amount. Calibration graphs based on plasma samples spiked with the analyte were constructed by regression analysis. Typical dynamic range for standard assay was 1-2000 nmol/I. The method performance was assured by co-assaying quality control (QC) samples in duplicate at three concentration levels.
Stock and working solutions of analytes were prepared in plasma and incubated by 37° C. for 1 hour.
Sample Preparation: 40.0 μl EDTA-plasma was added 160 μl 50% methanol, 1% formic acid, then vortexed and centrifuged at 16457 g at 4° C. for 20 minutes. The supernatant was transferred to a 96 well plate, plates incubated with 0.4% BSA, 37° C. for ½ hour. Injection volume was 25 μl.
The analysis was carried out on a Sciex API 3000 mass spectrometer (MDS/Sciex, Concord, ON, Canada) using a TurbolonSpray interface. The TFC/LC system consisted of two Flux Rheos 2000 quaternary pumps, a Cohesive VIM module (Cohesive Technologies, Franklin, Mass., USA) and a CTC LC/PAL auto sampler (CTC Analytics, Zingen, Switzerland). The centrifuge employed was a HettichMikro 22R (A. Hettich, Tuttlingen, Germany). For sample clean up a TurboFlow C8 column (0.5×50 mm) (Cohesive Technologies/Thermofisher) was used and the LC separation was done on a Proteo 4 μm column (2.0×50 mm) (Phenomenex, Torrance, Calif., USA). Eluents were isocratic and gradient combinations of methanol, acetonitril, Milli-Q water and formic acid.
Non-compartmental analysis (NCA): Plasma concentration-time profiles are analyzed by non-compartmental pharmacokinetics analysis (NCA) using WinNonlin Professional 5.0 (Pharsight Inc., Mountain View, Calif., USA). NCA is performed using the individual plasma concentration-time profiles from each animal.

**Q.** For CC[C@H](C)[C@H](NC(=O)[C@H](Cc1ccc(O)cc1)NC(=O)[C@H](CCCNC(=N)N)NC(=O)[C@H](CCCNC(=N)N)NC(=O)[C@H](CC(C)C)NC(=O)[C@H](CC(=O)O)NC(=O)[C@H](CCCCNC(=O)COCCOCCNC(=O)COCCOCCNC(=O)CC[C@H](NC(=O)CCCCCCCCCCCCCCCCC(=O)O)C(=O)O)NC(=O)[C@H](C)NC(=O)[C@H](Cc1ccc(O)cc1)NC(=O)[C@H](CCC(N)=O)NC(=O)[C@H](C)NC(=O)[C@H](CCSC)NC(=O)[C@H](CCC(N)=O)NC(=O)[C@H](CCC(=O)O)NC(=O)[C@@H]1CCCN1C(=O)[C@@H](NC(=O)[C@H](C)NC(=O)[C@H](CC(N)=O)NC(=O)[C@H](CC(=O)O)NC(=O)CNC(=O)[C@@H]1CCCN1C(=O)[C@H](Cc1ccc(O)cc1)NC(=O)[C@@H](NC(=O)[C@@H]1CCCN1C(=O)[C@H](CCC(=O)O)NC(=O)[C@@H](N)CC(C)C)C(C)C)[C@@H](C)O)C(=O)N[C@@H](CC(N)=O)C(=O)N[C@@H](CCSC)C(=O)N[C@@H](CC(C)C)C(=O)N[C@H](C(=O)N[C@@H](CCCNC(=N)N)C(=O)N1CCC[C@H]1C(=O)N[C@@H](CCCNC(=N)N)C(=O)N[C@@H](Cc1ccc(O)cc1)C(N)=O)[C@@H](C)O [Compound AT] (H-LEPVYPGDNATPEQMAQYAK([AEEA-AEEA-γGlu-C18 diacid])DLRRYINMLTRPRY-NH2; N-terminus and C-terminus assumed), which half-life is on record?
**A.** 34 h

**Q.** With CC[C@H](C)[C@H](NC(=O)[C@H](Cc1ccc(O)cc1)NC(=O)[C@H](CCCNC(=N)N)NC(=O)[C@H](CCCNC(=N)N)NC(=O)[C@H](CC(C)C)NC(=O)[C@H](CC(=O)O)NC(=O)[C@H](C)NC(=O)[C@H](C)NC(=O)[C@H](Cc1ccc(O)cc1)NC(=O)[C@H](CCC(N)=O)NC(=O)[C@H](C)NC(=O)[C@H](CCSC)NC(=O)[C@H](CCC(N)=O)NC(=O)[C@H](CCC(=O)O)NC(=O)[C@@H]1CCCN1C(=O)[C@H](CCCCNC(=O)COCCOCCNC(=O)COCCOCCNC(=O)CC[C@H](NC(=O)CCCCCCCCCCCCCCCCC(=O)O)C(=O)O)NC(=O)[C@H](C)NC(=O)[C@H](CC(N)=O)NC(=O)[C@H](CC(=O)O)NC(=O)CNC(=O)[C@@H]1CCCN1C(=O)[C@H](Cc1ccc(O)cc1)NC(=O)[C@@H](NC(=O)[C@@H]1CCCN1C(=O)[C@H](CCC(=O)O)NC(=O)[C@@H](N)CC(C)C)C(C)C)C(=O)N[C@@H](CC(N)=O)C(=O)N[C@@H](CCSC)C(=O)N[C@@H](CC(C)C)C(=O)N[C@H](C(=O)N[C@@H](CCCNC(=N)N)C(=O)N1CCC[C@H]1C(=O)N[C@@H](CCCNC(=N)N)C(=O)N[C@@H](Cc1ccc(O)cc1)C(N)=O)[C@@H](C)O [Compound BC] (H-LEPVYPGDNAK([AEEA-AEEA-γGlu-C18 diacid])PEQMAQYAADLRRYINMLTRPRY-NH2; N-terminus and C-terminus assumed) as the compound, how does the half-life read?
**A.** 16 h

**Q.** Which half-life does the source give for CC[C@H](C)[C@H](NC(=O)[C@H](Cc1ccc(O)cc1)NC(=O)[C@H](CCCNC(=N)N)NC(=O)[C@H](CCCNC(=N)N)NC(=O)[C@H](CC(C)C)NC(=O)[C@H](CC(=O)O)NC(=O)[C@H](C)NC(=O)[C@H](C)NC(=O)[C@H](Cc1ccc(O)cc1)NC(=O)[C@H](CCC(N)=O)NC(=O)[C@H](C)NC(=O)[C@H](CCSC)NC(=O)[C@H](CCC(N)=O)NC(=O)[C@H](CCC(=O)O)NC(=O)[C@@H]1CCCN1C(=O)[C@@H](NC(=O)[C@H](C)NC(=O)[C@H](CC(N)=O)NC(=O)[C@H](CC(=O)O)NC(=O)CNC(=O)[C@@H]1CCCN1C(=O)[C@H](Cc1ccc(O)cc1)NC(=O)[C@@H](NC(=O)[C@@H]1CCCN1C(=O)[C@H](CCCCNC(=O)COCCOCCNC(=O)COCCOCCNC(=O)CC[C@H](NC(=O)CCCCCCCCCCCCCCCCC(=O)O)C(=O)O)NC(=O)[C@@H](N)CC(C)C)C(C)C)[C@@H](C)O)C(=O)N[C@@H](CC(N)=O)C(=O)N[C@@H](CCSC)C(=O)N[C@@H](CC(C)C)C(=O)N[C@H](C(=O)N[C@@H](CCCNC(=N)N)C(=O)N1CCC[C@H]1C(=O)N[C@@H](CCCNC(=N)N)C(=O)N[C@@H](Cc1ccc(O)cc1)C(N)=O)[C@@H](C)O [BL] here?
**A.** 52 h

**Q.** Which half-life does the source give for CC[C@H](C)[C@H](NC(=O)[C@H](Cc1ccc(O)cc1)NC(=O)[C@H](CCCNC(=N)N)NC(=O)[C@H](CCCNC(=N)N)NC(=O)[C@H](CC(C)C)NC(=O)[C@H](CC(=O)O)NC(=O)[C@H](C)NC(=O)[C@H](C)NC(=O)[C@H](Cc1ccc(O)cc1)NC(=O)[C@H](CCC(N)=O)NC(=O)[C@H](C)NC(=O)[C@H](CCSC)NC(=O)[C@H](CCC(N)=O)NC(=O)[C@H](CCC(=O)O)NC(=O)[C@@H]1CCCN1C(=O)[C@@H](NC(=O)[C@H](C)NC(=O)[C@H](CC(N)=O)NC(=O)[C@H](CC(=O)O)NC(=O)CNC(=O)[C@@H]1CCCN1C(=O)[C@H](Cc1ccc(O)cc1)NC(=O)[C@@H](NC(=O)[C@@H]1CCCN1C(=O)[C@H](CCC(=O)O)NC(=O)[C@H](CCCCNC(=O)COCCOCCNC(=O)COCCOCCNC(=O)CC[C@H](NC(=O)CCCCCCCCCCCCCCCCC(=O)O)C(=O)O)NC(=O)[C@@H]1CCCN1)C(C)C)[C@@H](C)O)C(=O)N[C@@H](CC(N)=O)C(=O)N[C@@H](CCSC)C(=O)N[C@@H](CC(C)C)C(=O)N[C@H](C(=O)N[C@@H](CCCNC(=N)N)C(=O)N1CCC[C@H]1C(=O)N[C@@H](CCCNC(=N)N)C(=O)N[C@@H](Cc1ccc(O)cc1)C(N)=O)[C@@H](C)O [Compound AE] here?
**A.** 45 h

**Q.** Which half-life does the source give for CC[C@H](C)[C@H](NC(=O)[C@H](Cc1ccc(O)cc1)NC(=O)[C@H](CCCNC(=N)N)NC(=O)[C@H](CCCNC(=N)N)NC(=O)[C@H](CC(C)C)NC(=O)[C@H](CC(=O)O)NC(=O)[C@H](C)NC(=O)[C@H](C)NC(=O)[C@H](Cc1ccc(O)cc1)NC(=O)[C@H](CCC(N)=O)NC(=O)[C@H](C)NC(=O)[C@H](CCSC)NC(=O)[C@H](CCC(N)=O)NC(=O)[C@H](CCC(=O)O)NC(=O)[C@@H]1CCCN1C(=O)[C@@H](NC(=O)[C@H](C)NC(=O)[C@H](CC(N)=O)NC(=O)[C@H](CC(=O)O)NC(=O)CNC(=O)[C@@H]1CCCN1C(=O)[C@H](Cc1ccc(O)cc1)NC(=O)[C@@H](NC(=O)[C@@H]1CCCN1C(=O)[C@H](CCCCNC(=O)COCCOCCNC(=O)COCCOCCNC(=O)CC[C@H](NC(=O)CCCCCCCCCCCCCCCCC(=O)O)C(=O)O)NC(=O)[C@H](CC(C)C)NC(=O)[C@@H]1CCCN1)C(C)C)[C@@H](C)O)C(=O)N[C@@H](CC(N)=O)C(=O)N[C@@H](CCSC)C(=O)N[C@@H](CC(C)C)C(=O)N[C@H](C(=O)N[C@@H](CCCNC(=N)N)C(=O)N1CCC[C@H]1C(=O)N[C@@H](CCCNC(=N)N)C(=O)N[C@@H](Cc1ccc(O)cc1)C(N)=O)[C@@H](C)O [Compound AD] here?
**A.** 52 h

**Q.** With CSCC[C@H](NC(=O)[C@H](CCC(N)=O)NC(=O)[C@H](CCC(=O)O)NC(=O)[C@@H]1CCCN1C(=O)[C@@H](NC(=O)[C@H](C)NC(=O)[C@H](CC(N)=O)NC(=O)[C@H](CC(=O)O)NC(=O)CNC(=O)[C@@H]1CCCN1C(=O)[C@H](Cc1ccc(O)cc1)NC(=O)[C@@H](NC(=O)[C@@H]1CCCN1C(=O)[C@H](CCC(=O)O)NC(=O)[C@@H](N)CC(C)C)C(C)C)[C@@H](C)O)C(=O)N[C@@H](C)C(=O)N[C@@H](CCC(N)=O)C(=O)N[C@@H](Cc1ccc(O)cc1)C(=O)N[C@@H](C)C(=O)N[C@@H](C)C(=O)N[C@@H](CC(=O)O)C(=O)N[C@@H](CC(C)C)C(=O)N[C@@H](CCCNC(=N)N)C(=O)N[C@@H](CCCNC(=N)N)C(=O)N[C@@H](Cc1ccc(O)cc1)C(=O)N[C@@H](CCCCNC(=O)COCCOCCNC(=O)COCCOCCNC(=O)CC[C@H](NC(=O)CCCCCCCCCCCCCCCCC(=O)O)C(=O)O)C(=O)N[C@@H](CC(N)=O)C(=O)N[C@@H](CCSC)C(=O)N[C@@H](CC(C)C)C(=O)N[C@H](C(=O)N[C@@H](CCCNC(=N)N)C(=O)N1CCC[C@H]1C(=O)N[C@@H](CCCNC(=N)N)C(=O)N[C@@H](Cc1ccc(O)cc1)C(N)=O)[C@@H](C)O [Compound AN] (H-LEPVYPGDNATPEQMAQYAADLRRYK([AEEA-AEEA-γGlu-C18 diacid])NMLTRPRY-NH2; N-terminus and C-terminus assumed) as the compound, how does the half-life read?
**A.** 69 h
